Reference: patent publication US11685719B2, “Pyridinone MK2 inhibitors and uses thereof” (Xinthera, Inc., priority 2021, dated 2023)

Legend:
p38a/PRAK = p38a/PRAK (Homo sapiens (Human), UniProt Q16539); assay: biochemical; conditions: 10-point 1:3 dilution, top dose 300 μM; 10 μM ATP, 2 h incubation; read-out: p38a/PRAK Enzyme pIC50 (converted)
Procedure: (§1) Expression vectors of the recombinant MK2 and PRAK kinases were constructed by cloning of the codon optimized gene sequences of MK2 (Uniprot ID P49137, amino acid fragment F46-H400), or PRAK (Uniprot ID Q81W41, amino acid fragment M1-Q471) into pGEX-4T1 (GE) for over expression of these kinases with N-terminal GST-tag. Protein expression was carried out in E. coli BL21 by growing the hosts in TB medium, induction of protein expression with 0.5 mM IPTG at approximate 0.8 OD600, and incubation of the cultures at 18° C. for 14-20 hours afterwards. The harvested cells were resuspended in […] of Lysis buffer (50 mM Tris-HCl, pH 8.0, 500 mM NaCl, 1 mM DTT, 5% glycerol, and 1 mM PMSF) per gram of wet cell mass and homogenized at 4° C. in a microfluidizer (ATS, Suzhou, China) at 14,000 psi pressure, 3 passes. The cell lysates were clarified by centrifugation and the supernatants containing the GST-fusion proteins were purified by affinity chromatography using GSH-Sepharose (GE) gravity flow columns pre-equilibrated in Buffer A (50 mM Tris-HCl, pH 8.0, 500 mM NaCl, 1 mM DTT, and 5% glycerol). After thorough washing of the columns with Buffer A, the bound GST-proteins were eluted by Buffer B (50 mM Tris, pH 8.0, 500 mM NaCl, 1 mM DTT, 5% glycerol, 10 mM glutathione), followed by size-exclusion purification on Superdex 200 column equilibrated in Buffer A. The purified proteins were concentrated to approximately 1 mg/ml and stored at −80° C.
(§2) This study evaluates the inhibitory potency of invention compound on p38/MK2 pathway vs p38/PRAK pathway. More specially the compound concentration (IC50) was determined that inhibited half of the maximal activation of MK2 or PRAK by p38. MK2 activation study was set up without or with a serial of 10-point 1:3 dilution of invention compound at top dose of 1 or 10 μM, and PRAK activation study was set up without or with a serial of 10-point 1:3 dilution of invention compound at top dose of 300 μM. The MIK2 and PRAK activity were determined by the phosphorylation level of HSP27 peptide conjugated with FITC.

p38a/MK2 = p38a/MK2 (Homo sapiens (Human), UniProt P49137+Q16539); assay: biochemical; conditions: 10-point 1:3 dilution, top dose 1 μM; 10 μM ATP, 2 h incubation; read-out: p38a/MK2 (1 μM) Enzyme pIC50 (converted)
p38a/MK2, sequence (Q16539 whole entry): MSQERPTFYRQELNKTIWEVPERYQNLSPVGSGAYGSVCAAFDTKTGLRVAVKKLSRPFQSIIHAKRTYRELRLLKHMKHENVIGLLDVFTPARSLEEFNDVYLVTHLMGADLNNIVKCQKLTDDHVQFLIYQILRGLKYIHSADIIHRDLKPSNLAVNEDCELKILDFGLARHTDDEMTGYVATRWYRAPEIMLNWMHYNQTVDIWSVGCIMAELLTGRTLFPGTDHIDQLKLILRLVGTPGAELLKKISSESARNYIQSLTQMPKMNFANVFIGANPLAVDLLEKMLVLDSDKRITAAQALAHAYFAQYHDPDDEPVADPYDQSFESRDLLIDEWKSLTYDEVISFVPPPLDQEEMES
p38a/MK2, sequence (P49137 46-400): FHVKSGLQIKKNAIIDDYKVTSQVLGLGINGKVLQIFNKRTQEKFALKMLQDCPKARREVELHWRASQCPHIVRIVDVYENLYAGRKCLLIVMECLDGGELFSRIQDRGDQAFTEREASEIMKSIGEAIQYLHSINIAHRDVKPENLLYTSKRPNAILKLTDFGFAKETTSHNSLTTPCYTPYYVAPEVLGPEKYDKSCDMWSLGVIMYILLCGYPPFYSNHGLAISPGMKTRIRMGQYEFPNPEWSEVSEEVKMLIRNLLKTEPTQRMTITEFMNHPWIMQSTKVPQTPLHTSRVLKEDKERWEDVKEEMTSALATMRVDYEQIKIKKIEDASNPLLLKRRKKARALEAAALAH
Procedure: as §1, §2

p38a/PRAK, sequence (Q16539 whole entry, the tested form may be a part): as the sequence (Q16539 whole entry) above

Compound | IC50 (p38a/PRAK) [µM] | IC50 (p38a/MK2) [µM]
Cc1cnc(-n2cccc(C(C)(C)O)c2=O)cc1-n1c(C)cc(OCc2ncc(Cl)cc2F)c(Cl)c1=O (single isomer, unassigned) [Example 4B, rel-3-chloro-4-[(5-chloro-3-fluoropyridin-2-yl)methoxy]-2′-[3-(2-hydroxypropan-2-yl)-2-oxopyridin-1-yl]-5′,6-dimethyl-[1,4′-bipyridin]-2-one] | > 316 | > 1
Cc1cnc(-n2cccc(C(C)(C)O)c2=O)cc1-n1c(C)nc(OCc2ncc(F)cc2F)c(Cl)c1=O (single isomer, unassigned) [Example 25B, rel-4′-{5-chloro-4-[(3,5-difluoropyridin-2-yl)methoxy]-2-methyl-6-oxopyrimidin-1-yl}-3-(2-hydroxypropan-2-yl)-5′-methyl-[1,2′-bipyridin]-2-one] | > 316 | 0.631
Cc1cnc(-n2nccc(C(C)(C)O)c2=O)cc1-n1c(C)cc(OCc2ncc(F)cc2F)c(Cl)c1=O (single isomer, unassigned) [Example 9B, rel-3-chloro-4-[(3,5-difluoropyridin-2-yl)methoxy]-2′-[5-(2-hydroxypropan-2-yl)-6-oxopyridazin-1-yl]-5′,6-dimethyl-[1,4′-bipyridin]-2-one] | > 316 | > 1
Cc1cnc(-n2ccnc(C(C)(C)O)c2=O)cc1-n1c(C)cc(OCc2ncc(F)cc2Cl)c(Cl)c1=O (single isomer, unassigned) [Example 24B, rel-3-chloro-4-[(3-chloro-5-fluoropyridin-2-yl)methoxy]-2′-[3-(2-hydroxypropan-2-yl)-2-oxopyrazin-1-yl]-5′,6-dimethyl-[1,4′-bipyridin]-2-one] | 5.01 | 0.00251
Cc1cnc(-n2cccc(C3(O)CCC3)c2=O)cc1-n1c(C)cc(OCc2ncc(F)cc2F)c(Cl)c1=O (single isomer, unassigned) [Example 12A, rel-3-chloro-4-[(3,5-difluoropyridin-2-yl)methoxy]-2′-[3-(1-hydroxycyclobutyl)-2-oxopyridin-1-yl]-5′,6-dimethyl-[1,4′-bipyridin]-2-one] | 7.94 | 0.0126
[2H]C([2H])(Oc1cc(C)n(-c2cc(-n3ccnc(C(C)(C)O)c3=O)ncc2C)c(=O)c1Cl)c1ncc(F)cc1F (single isomer, unassigned) [Example 19B, rel-3-chloro-4-((3,5-difluoropyridin-2-yl)methoxy-d2)-2′-(3-(2-hydroxypropan-2-yl)-2-oxopyrazin-1(2H)-yl)-5′,6-dimethyl-2H-[1,4′-bipyridin]-2-one] | > 316 | 0.794
[2H]C([2H])(Oc1cc(C)n(-c2cc(-n3cccc(C(C)(C)O)c3=O)ncc2C)c(=O)c1Cl)c1ncc(F)cc1F (single isomer, unassigned) [Example 18A, rel-3″-chloro-4″-((3,5-difluoropyridin-2-yl)methoxy-d2)-3-(2-hydroxypropan-2-yl)-5′,6″-dimethyl-2H,2″H-[1,2′:4′,1″-terpyridine]-2,2″-dione] | 3.16 | 0.00158
[2H]C([2H])(Oc1cc(C)n(-c2cc(-n3ccnc(C(C)(C)O)c3=O)ncc2C)c(=O)c1Cl)c1ncc(Cl)cc1F (single isomer, unassigned) [Example 20B, rel-3-chloro-4-((5-chloro-3-fluoropyridin-2-yl)methoxy-d2)-2′-(3-(2-hydroxypropan-2-yl)-2-oxopyrazin-1(2H)-yl)-5′,6-dimethyl-2H-[1,4′-bipyridin]-2-one] | > 316 | 0.316
[2H]C([2H])(Oc1cc(C)n(-c2cc(-n3ccnc(C(C)(C)O)c3=O)ncc2C)c(=O)c1Cl)c1ncc(F)cc1Cl (single isomer, unassigned) [Example 22B, rel-3-chloro-4-((3-chloro-5-fluoropyridin-2-yl)methoxy-d2)-2′-(3-(2-hydroxypropan-2-yl)-2-oxopyrazin-1(2H)-yl)-5′,6-dimethyl-2H-[1,4′-bipyridin]-2-one] | > 316 | > 0.1
[2H]C([2H])(Oc1cc(C)n(-c2cc(-n3ccc(F)c(C(C)(C)O)c3=O)ncc2C)c(=O)c1Cl)c1ncc(F)cc1F (single isomer, unassigned) [Example 26B, rel-3-chloro-4-[(3,5-difluoropyridin-2-yl)(2H2)methoxy]-2′-[4-fluoro-3-(2-hydroxypropan-2-yl)-2-oxopyridin-1-yl]-5′,6-dimethyl-[1,4′-bipyridin]-2-one] | > 316 | > 0.1
Cc1cnc(-n2cccc([C@](C)(O)C3CC3)c2=O)cc1-n1c(C)cc(OCc2ncc(F)cc2F)c(Cl)c1=O (single isomer, unassigned) [Example 14A, rel-3-chloro-2′-[3-(1-cyclopropyl-1-hydroxyethyl)-2-oxopyridin-1-yl]-4-[(3,5-difluoropyridin-2-yl)methoxy]-5′,6-dimethyl-[1,4′-bipyridin]-2-one] | 3.16 | 0.00158
CCOC(=O)C(C)(C)n1nc(-c2cc(-n3c(C)cc(OCc4ncc(F)cc4F)c(Cl)c3=O)c(C)cn2)ccc1=O (atropisomer, axis not shown) [Example 6, ethyl 2-(3-{3-chloro-4-[(3,5-difluoropyridin-2-yl)methoxy]-5′,6-dimethyl-2-oxo-[1,4′-bipyridin]-2′-yl}-6-oxopyridazin-1-yl)-2-methylpropanoate] | 6.31 | 0.02
Cc1cnc(-n2cccc(C(C)(C)O)c2=O)cc1-n1c(C)cc(OCc2ncc(Cl)cc2F)c(Cl)c1=O (single isomer, unassigned) [Example 4A, rel-3-chloro-4-[(5-chloro-3-fluoropyridin-2-yl)methoxy]-2′-[3-(2-hydroxypropan-2-yl)-2-oxopyridin-1-yl]-5′,6-dimethyl-[1,4′-bipyridin]-2-one] | 5.01 | 0.002
Cc1cnc(-n2ccc(C)c(C(C)(C)O)c2=O)cc1-n1c(C)cc(OCc2ncc(F)cc2F)c(Cl)c1=O (single isomer, unassigned) [Example 15B, rel-3-chloro-4-[(3,5-difluoropyridin-2-yl)methoxy]-2′-[3-(2-hydroxypropan-2-yl)-4-methyl-2-oxopyridin-1-yl]-5′,6-dimethyl-[1,4′-bipyridin]-2-one] | > 316 | > 1
Cc1ncc(-n2cccc(C(C)(C)O)c2=O)cc1-n1c(C)cc(OCc2ncc(F)cc2F)c(Cl)c1=O (single isomer, unassigned) [Example 16A, rel-5′-{3-chloro-4-[(3,5-difluoropyridin-2-yl)methoxy]-6-methyl-2-oxopyridin-1-yl}-3-(2-hydroxypropan-2-yl)-6′-methyl-[1,3′-bipyridin]-2-one] | 7.94 | 0.2
[2H]C([2H])(Oc1cc(C)n(-c2cc(-n3ccc(F)c(C(C)(C)O)c3=O)ncc2C)c(=O)c1Cl)c1ncc(F)cc1F (single isomer, unassigned) [Example 26A, rel-3-chloro-4-[(3,5-difluoropyridin-2-yl)(2H2)methoxy]-2′-[4-fluoro-3-(2-hydroxypropan-2-yl)-2-oxopyridin-1-yl]-5′,6-dimethyl-[1,4′-bipyridin]-2-one] | 3.16 | 0.00251
